PMC8518382, “Identification of a Bromodomain‐like Region in 15‐Lipoxygenase‐1 Explains Its Nuclear Localization” (Angewandte Chemie (International Ed. in English), 2021)

Experiments:
5-LOX = molecular target: T1, 5-LOX (Homo sapiens, UniProt P09917); experiment: Sandwich ELISA of Labelox B biotinylation in A549 cell lysate, 5-LOX capture; assay type: biochemical; details: HRP-streptavidin detection, read-out: EC50 of labeling
T1 construct: the endogenous LOXs were captured on an anti‐LOX antibody precoated 96‐well plate; endogenous in cells; host or cells: A549 cell lysate
T1 sequence (P09917 1-674): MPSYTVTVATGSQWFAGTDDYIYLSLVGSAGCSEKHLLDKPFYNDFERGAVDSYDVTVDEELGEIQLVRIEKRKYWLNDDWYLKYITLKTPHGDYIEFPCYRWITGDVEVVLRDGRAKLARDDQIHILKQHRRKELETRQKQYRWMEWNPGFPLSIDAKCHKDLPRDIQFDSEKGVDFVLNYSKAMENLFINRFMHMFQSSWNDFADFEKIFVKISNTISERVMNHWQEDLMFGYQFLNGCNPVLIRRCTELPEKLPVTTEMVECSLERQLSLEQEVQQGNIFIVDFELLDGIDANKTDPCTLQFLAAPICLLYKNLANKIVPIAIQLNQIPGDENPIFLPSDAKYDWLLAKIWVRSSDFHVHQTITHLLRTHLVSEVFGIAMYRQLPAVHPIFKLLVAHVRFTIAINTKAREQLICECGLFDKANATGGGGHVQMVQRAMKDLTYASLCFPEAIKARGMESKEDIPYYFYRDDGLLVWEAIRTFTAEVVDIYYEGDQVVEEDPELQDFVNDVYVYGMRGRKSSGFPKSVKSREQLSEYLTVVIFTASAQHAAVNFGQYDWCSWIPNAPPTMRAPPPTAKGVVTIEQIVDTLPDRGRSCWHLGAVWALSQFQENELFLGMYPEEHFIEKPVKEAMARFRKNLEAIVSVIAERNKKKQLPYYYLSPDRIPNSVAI
Procedure: Labelox B efficiently labels endogenous LOXs. Lipoxygenase labeling by Labelox B was investigated using cell‐based assays. As a first step, labeling efficiency was estimated in intact RAW 264.7 macrophage cells that were treated with Labelox B in concentrations ranging between 1 μM and 100 μM with incubation times between 0.5 h and 6 h. […] As a next step, a sandwich ELISA assay was established in order to find proof that probe Labelox B is indeed labeling proteins with lipoxygenase enzyme activity. Towards this aim, A549 cell lysates were treated with sub‐micromolar to micromolar concentrations of Labelox B. Subsequently, the endogenous LOXs were captured on an anti‐LOX antibody precoated 96‐well plate followed by detection of Labelox B mediated biotinylation using HRP‐conjugated streptavidin. […] Furthermore, probe Labelox B enabled visualization of localized LOX activity in living cells (Figure 2 c). […] The fluorescence intensity increased with increasing doses of Labelox B and labeling was observed throughout the cells in the cytoplasm and the nucleus of A549.
Figure 2 Labelox B labels endogenous LOXs in a dose‐ and time‐dependent manner. a, b) Western blot analysis of Labelox B labeled LOXs in intact RAW 264.7 for indicated doses and time points. […] The pictures were captured by a Leica DM4000b fluorescence microscope.

15-LOX-1 = molecular target: T2, 15-LOX-1 (Homo sapiens, UniProt P16050); experiment: Jump dilution assay on recombinant 15-LOX-1; assay type: biochemical; parameters: His-tag (N); made in house; host or cells: E. coli BL21(DE3); details: 10 µM for 20 min at room temperature, then 100-fold dilution
T2 sequence (P16050 1-662): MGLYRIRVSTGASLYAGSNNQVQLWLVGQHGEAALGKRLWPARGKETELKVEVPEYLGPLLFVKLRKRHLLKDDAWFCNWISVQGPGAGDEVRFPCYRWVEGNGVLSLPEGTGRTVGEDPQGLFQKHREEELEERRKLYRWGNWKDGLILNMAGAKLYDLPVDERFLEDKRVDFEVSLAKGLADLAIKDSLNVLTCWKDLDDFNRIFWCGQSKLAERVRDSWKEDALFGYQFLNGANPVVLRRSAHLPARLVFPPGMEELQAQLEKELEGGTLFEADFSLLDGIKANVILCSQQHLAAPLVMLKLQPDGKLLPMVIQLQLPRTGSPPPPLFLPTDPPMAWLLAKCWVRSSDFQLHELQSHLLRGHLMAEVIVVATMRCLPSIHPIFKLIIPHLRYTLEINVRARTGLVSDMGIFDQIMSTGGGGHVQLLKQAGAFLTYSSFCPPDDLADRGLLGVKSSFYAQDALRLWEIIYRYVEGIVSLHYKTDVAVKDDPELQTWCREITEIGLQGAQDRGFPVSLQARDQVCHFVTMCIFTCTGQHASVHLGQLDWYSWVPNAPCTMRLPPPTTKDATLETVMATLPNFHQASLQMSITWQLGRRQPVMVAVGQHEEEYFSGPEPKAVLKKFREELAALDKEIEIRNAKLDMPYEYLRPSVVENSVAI
Procedure: Figure S3. Labelox B labeled endogenous LOXs are immunoprecipitated by streptavidin beads. (A) A549 cell lysates were treated with. Labelox B. After labeling, free Labelox B was removed by Vivaspin
2. Labelox B labeled proteins were precipitated by Dynabeads and analyzed by Western blotting. (B) Uncropped Western blots for (A)
LOX-1 was incubated with Labelox B at 10 µM for 20min at room temperature to ensure 100% inhibition. Then, the enzyme/probe mixture was dilution 100-fold and employed for linoleic acid conversion. The group incubated with vehicle was condisered as positive control, while the group in […] of 15-LOX-1 was negative control. […]

EC50 (5-LOX): ~3.5 µM
Reversibility of inhibition (15-LOX-1): irreversibly inhibits
SMILES: CCCCCC#CCC#CCOC(=O)CCCC[C@@H]1SC[C@@H]2NC(=O)N[C@@H]21 [Labelox B (3)]
